Measurements taken from paper PMC10499915 (Scientific Reports, 2023).
Converted amounts (≈) assume the structure as drawn. Where two headings read alike, the source gives them in different places. Square brackets hold non-standard residues; d marks the D form. Peptide text beside a SMILES is read from it. * marks the point of attachment. Palmitoyl = CCCCCCCCCCCCCCCC(=O)*; Aib = CC(C)(N)C(=O)O

Experiments:
[1] = human serum, 37 °C, preliminary
Method: The proteolytic stability of synthetic peptides was assessed using chymotrypsin (Sigma–Aldrich) and human serum (Sigma–Aldrich)[46]. The peptide (0.125 mg) was dissolved in the minimum amount (5 µl) of DMSO (dimethylsulfoxide) and then diluted (final volume: 50 µl) with Tris·HCl 50 mM, pH 7.8. Then, it was incubated with and without the enzyme solution (1.25 µg of enzyme in 150 µl buffer) at 37 °C for 24 h. After the workup procedures, the samples were analysed by RP-HPLC as described in the ‘peptide synthesis and characterization’ experimental section. A peptide not resistant to chymotripsin was used as a positive test. As a control, we used the 128-137 C-terminal portion of natural Endonuclease V. The peptide sequence is as follows: […]. All the degradation experiments were executed in triplicates.
Figure S10. […] The bars indicate the final time when the HPLC-MS signal of the peptides is still detectable in solution.

A.baumanni ATCC 19606 = assay type: cell-based, Acinetobacter baumannii; settings: ATCC 19606, 18 h
Method: (§1) The bacterial strains used were Escherichia coli ATCC 25922, Staphylococcus aureus ATCC 25923, Klebsiella pneumoniae ATCC 700603, Acinetobacter baumannii ATCC 19606, Pseudomonas aeruginosa ATCC 27853 and Staphylococcus epidermidis ATCC 12228. The reference bacterial strains used were purchased from American Type Culture Collection (ATCC) (Manassas, Virginia, USA). They were grown overnight (o/n) at 37 °C in complete Müller-Hinton broth (MHB, Difco) medium with shaking (130 rpm). The day after, the overnight bacterial cultures were diluted in fresh MHB (300 μL o/n culture in 10 mL) and incubated at 37 °C with shaking (130 rpm) for approximately 2 h (mid-log phase) until reaching an optical density (OD) at 600 nm (OD600) ≈ 0.3.
(§2) Peptides diluted in MHB to a concentration of 128 μM were added to the first column of wells of a 96-well round-bottom microtiter plate (Sarstedt, Milan, Italy) and serially diluted (1:2) in a final volume of 50 μL MHB was added to the next wells. Then, a mid-log bacterial cultures (OD 600≈ 0.3) were diluted to 5 × 10^5 colony-forming units (CFU)/mL in MHB and 50 μL of this bacterial suspension was added to each well. In this way, the final bacterial concentration was reduced to 2.5 × 10^5 CFU/mL and the peptide concentration in the wells was also halved in a final volume of 100 μL (final bacteria load was 2.5 × 10^4 CFU/well). The same amount of untreated bacteria in MHB was used as a control for bacterial growth. […] MIC was determined by visual inspection at the end of incubation as the first clear well. Data are reported as moda of independent experiments repeated three times or four times in case of uncertain values.

P.aeruginosa ATCC 27853 = assay type: cell-based, Pseudomonas aeruginosa; settings: ATCC 27853, 18 h
Method: as §1, §2

E.coli ATCC 25922 = assay type: cell-based, Escherichia coli; settings: ATCC 25922, 18 h
Method: as §1, §2

S.aureus ATCC 25923 = assay type: cell-based, Staphylococcus aureus
Method: as §1, §2

S.epidermidis ATCC 12228 = assay type: cell-based, Staphylococcus epidermidis; settings: ATCC 12228, 18 h
Method: as §1, §2

[2] = test system: E. coli, A. baumannii, K. pneumoniae, P. aeruginosa, and S. epidermidis strains; assay type: cell-based; settings: 18 h
Method: as §1, §2

K.pneumoniae ATCC 700603 = assay type: cell-based, Klebsiella pneumoniae; settings: ATCC 700603, 18 h
Method: as §1, §2

[3] = Hydrophobicity by RP-HPLC retention time; assay type: physicochemical; settings: for Retention time tR: used as measure of hydrophobicity, RP-HPLC, Phenomenex Luna C18 (100 Å, 5µ), linear gradient 5%B to 95%B over 30 min, A 0.1% TFA in 9:1 water:acetonitrile, B 0.1% TFA in 9:1 acetonitrile:water, 1 mL/min, peptide 0.5 mg/mL in MeOH, UV 215 and 280 nm
Method: Peptide hydrophobicity was calculated as difference in retention times between peptide analogues b–h and peptide a. Each peptide was dissolved in MeOH to a concentration of 0.5 mg/mL and then subjected to RP-HPLC on an analytical Phenomenex Luna C18 (100 Å, 5µ) column using 0.1% TFA in 9:1 water:acetonitrile as solvent A, and 0.1% TFA in 9:1 acetonitrile:water as solvent B. The peptides were eluted using a linear gradient as follows: 5%B to 95%B over 30 min. The flow rate was 1 mL/min and the absorbance was measured at 215 nm and 280 nm. The retention time was recorded for each peptide.

[4] = Circular dichroism, helicity; assay type: physicochemical; settings: CD in TFE; taken as suggesting aggregation (coiled-coil)
Method: The secondary structure of the peptides was investigated by circular dichroism (CD) spectroscopy in various environments, including 0.2 mM potassium-phosphate buffer (aqueous solution, pH 7), 100 mM sodium dodecyl sulphate (SDS), and 2,2,2-trifluoroethanol (TFE). As these peptides are active on membranes, we chose SDS, as SDS micelles represent a model mimicking the prokaryotic cell membrane. TFE, on the other hand, is a solvent that induces the formation of helical structures.
The electronic CD curves in the far-UV region (below 260 nm) were obtained on a Jasco (Tokyo, Japan) model J-1500 spectropolarimeter with a fused quartz cell of 0.02 cm pathlength (Hellma, Mühlheim, Germany). The values are expressed in terms of [θ]R, the molar ellipticity per residue (deg × cm^2/dmol). Spectra were recorded at room temperature in water, in spectrograde TFE (99.9% Acros Organics, Geel, Belgium) and 100 mM SDS solution at 3 × 10^−4 M peptide concentration. The final molar peptide-to-lipid ratio is 1:300.

[5] = test system: ram red blood cells (RBCs); settings: 4% v/v ram RBCs in PBS, 1 h, 37 °C, absorbance 540 nm, 100% = 1% Triton X-100; all concentrations tested; n = 3
Method: The lytic potential towards eukaryotic cell membranes was assessed by measuring the release of haemoglobin from commercial ram red blood cells (RBCs) (Microbiol s.r.l., Cagliari, Italy) after exposure to the peptides. First, erythrocytes were isolated by centrifugation, washed with PBS and then suspended at 8% (v/v) in PBS. Secondly, 100 µL erythrocytes suspension was added into each well of a 96-well microplate. Then, 100 µL peptide solution was added to each well at different concentrations (the final concentration of erythrocytes suspension was 4% v/v), and the plates were incubated for 1 h at 37 °C and centrifuged at 1000 g for 10 min. Finally, 100 µL aliquots of supernatant were transferred to fresh 96-well microplate, and the release of haemoglobin was monitored by measuring the absorbance at 540 nm with Tecan microplate reader (Tecan Trading AG, Switzerland). 0% and 100% haemolysis were determined in PBS and 1% Triton X-100, respectively.

HaCaT cell line = settings: 24 h
Method: Cytotoxicity was measured by the MTT assay on human immortalized epidermal keratinocyte HaCaT cell line (DKFZ, Eppelheim, Germany). The HaCaT cells were grown in high-glucose Dulbecco’s modified Eagle’s medium (DMEM) (Sigma-Aldrich, Milan, Italy). DMEM medium was supplemented with 10% foetal bovine serum (FBS; Sigma, Milan, Italy), 2 mM glutamine (Sigma, Milan, Italy), 100 U/mL penicillin (Sigma, Milan, Italy) and 100 µg/mL streptomycin (Sigma, Milan, Italy). The cells were maintained at 37 °C in the presence of 5% CO2 and in a humidified incubator.
Cells were counted in a Burker-Türk chamber to prepare a suspension of 2 × 10^5 cells/ml in DMEM High Glucose Complete Medium (Sigma-Aldrich, Milan, Italy). 100 μL of this suspension was added to the wells of a 96-well flat-bottom transparent microtiter plate (Euroclone, Milan, Italy) specially treated for tissue culture. The plate was incubated for 24 h at 37 °C and 5% CO2 to allow the cells in each well to reach a semiconfluent state. The following day, serial dilutions (1:2) of the peptides, starting with 64 μM, were prepared in DMEM medium, and 100 μL of these solutions were used to replace the medium in the plate with HaCaT cells. The same amount of untreated DMEM high-glucose medium was used as a cell growth control. DMEM high-glucose complete medium (100 μL) was used as a negative control to check the sterility of the medium. The plate was sealed with Parafilm to minimize evaporation and incubated at 37 °C and 5% CO2 for 20 h. Then, 25 μL MTT (Sigma-Aldrich, Milan, Italy) dissolved in phosphate-buffered saline (PBS) was added to each well to a final concentration of 1 mg/mL MTT, and the plate was incubated for 4 h in the dark at 37 °C and 5% CO2.
At the end of incubation, 100 μL 10% (w/v) Igepal (Sigma-Aldrich, Milan, Italy) in 10 mM HCl was added to each well, and the plate was incubated overnight in the dark at 37 °C and 5% CO2. The absorbance of MTT at 570 nm was measured using a Nanoquant Infinite-M200Pro plate reader (Tecan, Männedorf, Switzerland). Student’s t-test was performed for all samples.

chymotrypsin = test system: T1, chymotrypsin; test: Proteolytic stability with chymotrypsin; assay type: in vitro ADME; settings: chymotrypsin (isolated enzyme) in buffer, after 90 min, Tris·HCl 50 mM pH 7.8, 37 °C; for remaining at 1.5 h, 0.625 mg/mL: 0.125 mg peptide, 1.25 µg enzyme, HPLC peak area (HPLC–MS), triplicates, read-out: percentage of intact peptide with chymotrypsin
T1 construct: purchased Sigma-Aldrich
Method: The stability of the peptides in the presence of chymotrypsin was monitored by HPLC–MS, analysing the fragments derived from the degradation of the peptide. All 20-mer analogues (a–f) are sensitive to chymotrypsin. The rate of peptide degradation was calculated as the percentage of intact peptide detected at defined time points. All peptides were mostly degraded within the first 15 min of incubation, with the exception of the lipopeptide e and the short peptide h. […] For peptide h, which was designed with an Aib residue to improve proteolytic resistance, 50% of the peptide was still intact after 90 min (Fig. 5A). The other peptides were cleaved on the C-terminal side of Leu21 or Trp23 as the first cleavage observed. Successive degradations involve Leu14 for all peptides (with the exception of a and h). Concerning 13-mer peptides (g and h), degradation at position 21 occurred only for g and not for the Aib containing peptide h, for which Leu14 is the sensitive point for chymotrypsin attack.
All the degradation experiments were executed in triplicates.

[6] = 4h and 24 h incubation, different concentrations
[7] = S.aureus ATCC 25923, Mueller–Hinton broth, 18 h, 37 °C, 2.5 × 10^5 CFU/mL, visual, mode of three independent tests

With Ac-KRLKKIGKVLKWI-NH2 [g] the “proteolytic degradation in serum” value ([1]; HPLC-MS) was “rapidly degraded”, the MIC (A.baumanni ATCC 19606) was 2 µM and the MIC (P.aeruginosa ATCC 27853) was 8 µM. For the same compound, the MIC (E.coli ATCC 25922) was 4 µM, the MIC (S.aureus ATCC 25923; ATCC 25923, 18 h) was greater than 64 µM and the MIC (S.aureus ATCC 25923; [7]) was greater than 64 µM. For the same compound, the MIC (S.epidermidis ATCC 12228) was 4 µM, the “MIC, span over all tested bacterial strains except S. aureus” value [2] was 2 to 8 µM and the MIC (K.pneumoniae ATCC 700603) was 8 µM. For the same compound, the “Retention time tR” value [3] was 12.1 min.

For Ac-KRLKKIGKVLKWIAKIVGSI-NH2 [b], the “ratio between molar ellipticities at 222 and 208 nm” value [4] was greater than 1, the MIC (A.baumanni ATCC 19606) was 2 µM and the MIC (P.aeruginosa ATCC 27853) was 16 µM. It also gave an MIC (E.coli ATCC 25922) of 4 µM, an MIC (S.aureus ATCC 25923; [7]) of 4 µM and an MIC (S.epidermidis ATCC 12228) of 4 µM. For the same compound, the “membranolytic (haemolytic) effect on erythrocytes” value (from here on “membranolytic (haemolytic) effect”) [5] was “significant lytic effect”, the MIC (K.pneumoniae ATCC 700603) was 8 µM and the “Retention time tR” value [3] was 17.2 min. For the same compound, the “Hydrophobicity ΔtR” value ([3]; ΔtR = tR(x)−tR(a), relative to compound a, RP-HPLC C18, 5%–95%B over 30 min) was 4.0.

For CCCCCCCCCCCCCCCC(=O)N[C@@H](CCCCN)C(=O)N[C@@H](CCCNC(=N)N)C(=O)N[C@@H](CC(C)C)C(=O)N[C@@H](CCCCN)C(=O)N[C@@H](CCCCN)C(=O)N[C@H](C(=O)NCC(=O)N[C@@H](CCCCN)C(=O)N[C@H](C(=O)N[C@@H](CC(C)C)C(=O)N[C@@H](CCCCN)C(=O)N[C@@H](Cc1c[nH]c2ccccc12)C(=O)N[C@H](C(=O)N[C@@H](C)C(=O)N[C@@H](CCCCN)C(=O)N[C@H](C(=O)N[C@H](C(=O)NCC(=O)N[C@@H](CO)C(=O)N[C@H](C(N)=O)[C@@H](C)CC)C(C)C)[C@@H](C)CC)[C@@H](C)CC)C(C)C)[C@@H](C)CC [e] (Palmitoyl-KRLKKIGKVLKWIAKIVGSI-NH2), the “HC50 (cytotoxicity on HaCaT cells)” value (HaCaT cell line) was less than 32 µM, the remaining at 1.5 h, 0.625 mg/mL (chymotrypsin) was 65% and the metabolised at 1.5 h, 0.625 mg/mL (chymotrypsin; HPLC, read-out: percentage of peptide degraded by chymotrypsin) was less than 50%. For the same compound, the MIC (A.baumanni ATCC 19606) was greater than 32 µM, the MIC (P.aeruginosa ATCC 27853) was greater than 32 µM and the MIC (E.coli ATCC 25922) was greater than 32 µM. For the same compound, the MIC (S.aureus ATCC 25923; ATCC 25923, 18 h) was greater than 32 µM, the MIC (S.epidermidis ATCC 12228) was greater than 32 µM and the “membranolytic (haemolytic) effect” value [5] was “significant lytic effect”. For the same compound, the “solubility in Müller-Hinton broth” value [6] was “low solubility” and the MIC (K.pneumoniae ATCC 700603) was greater than 32 µM.

For CC[C@H](C)[C@H](NC(=O)[C@H](Cc1c[nH]c2ccccc12)NC(=O)[C@H](CCCCN)NC(=O)C(C)(C)NC(=O)[C@@H](NC(=O)[C@H](CCCCN)NC(=O)CNC(=O)[C@@H](NC(=O)[C@H](CCCCN)NC(=O)[C@H](CCCCN)NC(=O)[C@H](CC(C)C)NC(=O)[C@H](CCCNC(=N)N)NC(=O)[C@H](CCCCN)NC(C)=O)[C@@H](C)CC)C(C)C)C(N)=O [h] (Ac-KRLKKIGKV[Aib]KWI-NH2), the “time peptide withstands proteolytic degradation in serum (HPLC-MS signal still detectable)” value [1] was “up to 180 min”, the remaining at 1.5 h, 0.625 mg/mL (chymotrypsin) was 50% and the MIC (A.baumanni ATCC 19606) was 2 µM (≈ 3.25 µg/mL). The MIC (P.aeruginosa ATCC 27853) was 8 µM (≈ 13 µg/mL), the MIC (E.coli ATCC 25922) was 4 µM (≈ 6.49 µg/mL) and the MIC (S.aureus ATCC 25923; ATCC 25923, 18 h) was greater than 64 µM. For the same compound, the MIC (S.aureus ATCC 25923; [7]) was greater than 64 µM, the MIC (S.epidermidis ATCC 12228) was 8 µM (≈ 13 µg/mL) and the “membranolytic (haemolytic) effect” value [5] was “no membranolytic effect”. The “MIC, span over all tested bacterial strains except S. aureus” value [2] was 2 to 8 µM, the MIC (K.pneumoniae ATCC 700603) was 8 µM (≈ 13 µg/mL) and the “Retention time tR” value [3] was 11.7 min.
